PubChem BioAssay AID330 (DTP/NCI, 2004)
Several values for one entry are separate records, joined by “and”; a condition that tells them apart may be missing. Equal entries are not always repeated. Inconclusive results and toxic doses are left out.

System: P388 leukemia ip, CD2F1 mice, survival T/C
Test: NCI In Vivo Anticancer Drug Screen. Data for tumor model P388 Leukemia (intraperitoneal) in CD2F1 (CDF1) mice
Details: endpoint: median survival time, higher = longer survival
How it was run: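 Mice carrying the transplanted tumor received test compound or vehicle. Survival was recorded in each group, and the value is the treated-group measurement divided by that of the vehicle-treated control group.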

[1] = dose: 50.0 mg/kg/injection, schedule: Q01DX005 (ip), vehicle: saline
[2] = dose: 100.0 mg/kg/injection, schedule: Q01DX005 (ip), vehicle: saline
[3] = dose: 50.0 mg/kg/injection, schedule: Q01DX009 (ip), vehicle: saline with Tween-80

With `N#CC(C#N)=CN1CCCCCC1` the T/C (dose: 6.25 mg/kg/injection, schedule: Q04DX003 (ip), vehicle: saline with Tween-80) was 104 % of control and the T/C (dose: 12.5 mg/kg/injection, schedule: Q04DX003 (ip), vehicle: saline with Tween-80) was 100 % of control.
In the case of `COC1=C(NC(C)=O)C(=O)c2nc(-c3nc(C(=O)O)c(C)c(-c4ccc(OC)c(OC)c4O)c3N)ccc2C1=O`, the T/C (dose: 12.5 mg/kg/injection, schedule: Q01DX009 (ip), vehicle: distilled water + Tween-80) is reported as 119 % of control, the T/C (dose: 25.0 mg/kg/injection, schedule: Q01DX009 (ip), vehicle: distilled water + Tween-80) is reported as 118 % of control and the T/C (dose: 50.0 mg/kg/injection, schedule: Q01DX009 (ip), vehicle: distilled water + Tween-80) is reported as 119 % of control. For the same molecule, the T/C (dose: 100.0 mg/kg/injection, schedule: Q01DX009 (ip), vehicle: distilled water + Tween-80) was 119 % of control.
`Cc1cc2n[se]nc2cc1C` was tested, and the T/C (dose: 6.25 mg/kg/injection, schedule: Q01DX009 (ip), vehicle: Klucel (hydroxypropylcellulose) (HPC)) was 107 % of control, the T/C (dose: 12.5 mg/kg/injection, schedule: Q01DX009 (ip), vehicle: Klucel (hydroxypropylcellulose) (HPC)) was 96 % of control and the T/C (dose: 25.0 mg/kg/injection, schedule: Q01DX009 (ip), vehicle: Klucel (hydroxypropylcellulose) (HPC)) was 100 % of control.
With `COc1cc(C(O)(CCN2CCCCC2)c2ccc3c(c2)OCO3)cc(OC)c1OC` (stereo unspecified) the T/C (dose: 50.0 mg/kg/injection, schedule: Q01DX005 (ip), vehicle: saline + Tween-80 + alcohol) was 94 % of control, the T/C (dose: 100.0 mg/kg/injection, schedule: Q01DX005 (ip), vehicle: saline + Tween-80 + alcohol) was 100 % of control and the T/C (dose: 200.0 mg/kg/injection, schedule: Q01DX005 (ip), vehicle: saline + Tween-80 + alcohol) was 93 % of control.
`CS1=C2C(=O)CCCC2=Nc2ccccc21` (stereo unspecified) was tested, and the T/C [1] was 97 % of control and the T/C [2] was 100 % of control.
In the case of `c1ccc2c(c1)Sc1ccccc1N2CC1CN2CCC1CC2` (stereo unspecified), the T/C (dose: 6.25 mg/kg/injection, schedule: Q01DX009 (ip), vehicle: saline with Tween-80) is reported as 107 % of control, the T/C (dose: 12.5 mg/kg/injection, schedule: Q01DX009 (ip), vehicle: saline with Tween-80) is reported as 98 % of control and 114 % of control and the T/C (dose: 25.0 mg/kg/injection, schedule: Q01DX009 (ip), vehicle: saline with Tween-80) is reported as 112 % of control and 123 % of control. For the same molecule, the T/C [3] was 104 % of control.
`CS(=O)(=O)c1nc(N)c(S(N)(=O)=O)c(N)n1` was tested, and the T/C (dose: 50.0 mg/kg/injection, schedule: Q01DX009 (ip), vehicle: Klucel (hydroxypropylcellulose) (HPC)) was 108 % of control and the T/C (dose: 100.0 mg/kg/injection, schedule: Q01DX009 (ip), vehicle: Klucel (hydroxypropylcellulose) (HPC)) was 111 % of control.
`COc1cc2c(cc1OC)C(C#N)(Cc1cccc3ccccc13)N(C(=O)c1ccccc1)C=C2` (stereo unspecified) was tested, and the T/C (dose: 60.0 mg/kg/injection, schedule: Q01DX005 (ip), vehicle: saline with Tween-80) was 99 % of control, the T/C (dose: 120.0 mg/kg/injection, schedule: Q01DX005 (ip), vehicle: saline with Tween-80) was 101 % of control and the T/C (dose: 240.0 mg/kg/injection, schedule: Q01DX005 (ip), vehicle: saline with Tween-80) was 99 % of control.
In the case of `COC1CCC(O)C(C(=O)CN(C)C)C1` (stereo unspecified), the T/C [1] is reported as 101 % of control, the T/C [2] is reported as 99 % of control and the T/C (dose: 200.0 mg/kg/injection, schedule: Q01DX005 (ip), vehicle: saline) is reported as 99 % of control.
With `Cc1nc(N)[nH]c(=O)c1CCCC#N` the T/C (dose: 60.0 mg/kg/injection, schedule: Q01DX005 (ip), vehicle: Klucel (hydroxypropylcellulose) (HPC)) was 105 % of control and the T/C (dose: 120.0 mg/kg/injection, schedule: Q01DX005 (ip), vehicle: Klucel (hydroxypropylcellulose) (HPC)) was 108 % of control.
`CC(=O)c1ccccc1NC(=O)COc1ccccc1OCC(=O)Nc1ccccc1C(C)=O` was tested, and the T/C (dose: 50.0 mg/kg/injection, schedule: Q01DX005 (ip), vehicle: saline with Tween-80) was 100 % of control, the T/C (dose: 100.0 mg/kg/injection, schedule: Q01DX005 (ip), vehicle: saline with Tween-80) was 92 % of control and the T/C (dose: 200.0 mg/kg/injection, schedule: Q01DX005 (ip), vehicle: saline with Tween-80) was 96 % of control.
With `NC(CS/C(Cl)=C/Cl)C(=O)O` (stereo unspecified) the T/C (dose: 12.0 mg/kg/injection, schedule: Q01DX009 (ip), vehicle: saline with Tween-80) was 117 % of control and the T/C (dose: 27.0 mg/kg/injection, schedule: Q01DX009 (ip), vehicle: saline with Tween-80) was 117 % of control.
For `c1ccc2c(Cc3nn[nH]n3)noc2c1`, the T/C [3] was 109 % of control, the T/C (dose: 100.0 mg/kg/injection, schedule: Q01DX009 (ip), vehicle: saline with Tween-80) was 107 % of control and the T/C (dose: 200.0 mg/kg/injection, schedule: Q01DX009 (ip), vehicle: saline with Tween-80) was 100 % of control.
